One may read the IC50 as the concentration that inhibits the measured activity by half.

This test deals with T1, human TRPM8 (Homo sapiens, UniProt Q7Z2W7).
T1 construct: expressed in transfected cells; host or cells: Chinese hamster ovary (CHO) cells, T-REx tetracycline-inducible system, co-transfected with aequorin
T1 sequence (Q7Z2W7 whole entry): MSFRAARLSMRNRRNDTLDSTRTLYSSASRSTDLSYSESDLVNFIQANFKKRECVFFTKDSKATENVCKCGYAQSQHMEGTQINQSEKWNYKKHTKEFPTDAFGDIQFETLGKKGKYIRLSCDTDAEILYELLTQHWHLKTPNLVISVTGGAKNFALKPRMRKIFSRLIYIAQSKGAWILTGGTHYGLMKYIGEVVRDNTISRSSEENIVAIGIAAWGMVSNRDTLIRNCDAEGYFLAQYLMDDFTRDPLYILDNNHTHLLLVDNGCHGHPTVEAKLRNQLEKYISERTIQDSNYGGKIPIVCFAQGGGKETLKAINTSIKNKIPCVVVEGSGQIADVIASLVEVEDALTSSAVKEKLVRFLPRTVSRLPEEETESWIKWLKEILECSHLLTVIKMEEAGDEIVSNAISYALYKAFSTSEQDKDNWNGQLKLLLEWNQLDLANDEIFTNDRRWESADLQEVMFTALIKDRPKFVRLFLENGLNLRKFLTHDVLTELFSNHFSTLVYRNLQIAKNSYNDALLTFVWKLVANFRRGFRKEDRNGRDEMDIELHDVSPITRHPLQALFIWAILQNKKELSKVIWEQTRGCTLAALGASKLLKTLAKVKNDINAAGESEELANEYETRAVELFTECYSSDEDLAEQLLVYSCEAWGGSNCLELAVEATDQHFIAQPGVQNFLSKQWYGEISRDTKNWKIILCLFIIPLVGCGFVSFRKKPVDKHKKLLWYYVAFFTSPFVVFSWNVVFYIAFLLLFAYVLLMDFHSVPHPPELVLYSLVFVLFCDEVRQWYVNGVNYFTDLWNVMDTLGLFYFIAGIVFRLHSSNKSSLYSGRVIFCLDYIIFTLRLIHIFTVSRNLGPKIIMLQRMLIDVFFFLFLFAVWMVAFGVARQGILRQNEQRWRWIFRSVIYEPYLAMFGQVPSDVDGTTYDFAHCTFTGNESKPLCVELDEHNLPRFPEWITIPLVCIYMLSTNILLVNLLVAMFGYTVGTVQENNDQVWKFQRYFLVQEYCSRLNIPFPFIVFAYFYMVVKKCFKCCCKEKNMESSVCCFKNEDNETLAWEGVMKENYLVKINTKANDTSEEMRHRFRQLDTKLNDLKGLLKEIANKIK
Put plainly: Luminescence readout assay for measuring intracellular calcium, icilin activation. The class given is cell-based. To be noted: CHO cells expressing human TRPM8, aequorin luminescence, 1 μM icilin activation; read-out: hTRPM8 IC50. The gist of the method: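 The read-out was luminescence reporting intracellular calcium, recorded by a CCD-based luminometer. Compounds were preincubated for 2.5 min before agonist challenge with 1 μM icilin. Human TRPM8 was expressed in a stable T-REx CHO line, induced with 0.5 μg/mL tetracycline the day before.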
For orientation: Calcium assays in cells follow changes in intracellular calcium, usually with a dye or a luminescent sensor.
For the compound `O=C(Cc1cccnc1)N[C@@H](c1ccc(C(F)(F)F)cc1)c1ncccc1C(F)(F)F` [Example 238, (S)-2-(pyridin-3-yl)-N-((4-(trifluoromethyl)phenyl)(3-(trifluoromethyl)pyridin-2-yl)methyl)acetamide], the IC50 turned out to be 547 nM.
As to `O=C(N[C@@H](c1ccc(C(F)(F)F)cc1)c1ncccc1C(F)(F)F)c1cc2cccnc2[nH]1` [Example 66, (S)-N-((4-(trifluoromethyl)phenyl)(3-(trifluoromethyl)pyridin-2-yl)methyl)-1H-pyrrolo[2,3-b]pyridine-2-carboxamide], the IC50 is 405 nM.
Regarding `O=C(N[C@@H](c1ccc(C(F)(F)F)c(F)c1)c1ccccc1C(F)(F)F)c1ccc2ncccc2c1` [Example 257, (S)-N-((3-fluoro-4-(trifluoromethyl)phenyl)(2-(trifluoromethyl)phenyl)methyl)quinoline-6-carboxamide], the IC50 was determined as 109 nM.
On to `O=C(N[C@@H](c1cnc2c(Cl)cccc2c1)c1ncccc1C(F)(F)F)c1ccc2cccnc2c1` [Example 7, (S)-N-((8-chloroquinolin-3-yl)(3-(trifluoromethyl)pyridin-2-yl)methyl)quinoline-7-carboxamide], for which the IC50 is 75.8 nM.
Turning to `O=C(N[C@@H](c1ccc(OC(F)(F)F)cc1)c1ncccc1F)c1ccc(-c2nc(=O)o[nH]2)cc1` [Example 316, (S)-N-((3-fluoropyridin-2-yl)(4-(trifluoromethoxy)phenyl)methyl)-4-(5-oxo-2,5-dihydro-1,2,4-oxadiazol-3-yl)benzamide], the IC50 stood at 31.4 nM.
As for `O=C1Cc2ccc(C(=O)N[C@@H](c3ccc(C(F)(F)F)cc3)c3ncccc3C(F)(F)F)cc2N1` [Example 69, (S)-2-oxo-N-((4-(trifluoromethyl)phenyl)(3-(trifluoromethyl)pyridin-2-yl)methyl)indoline-6-carboxamide], the figure is 12.9 nM; as for `Cc1cc(F)cc([C@H](NC(=O)c2ccc(=O)n(C)c2)c2ncccc2F)c1` [Example 326, (S)-N-((3-fluoro-5-methylphenyl)(3-fluoropyridin-2-yl)methyl)-1-methyl-6-oxo-1,6-dihydropyridine-3-carboxamide], 3210 nM.
`Cc1cccnc1[C@@H](NC(=O)c1ccc(-c2nc(=O)o[nH]2)cc1)c1ccc(C(F)(F)F)cc1` [Example 323, (S)-N-((3-methylpyridin-2-yl)(4-(trifluoromethyl)phenyl)methyl)-4-(5-oxo-2,5-dihydro-1,2,4-oxadiazol-3-yl)benzamide]: the IC50 stood at 36.7 nM.
The result for `O=C(N[C@@H](c1ccc(C(F)(F)F)cc1)c1ncccc1C(F)(F)F)c1ccc2cccnc2n1` [Example 128, (S)-N-((4-(trifluoromethyl)phenyl)(3-(trifluoromethyl)pyridin-2-yl)methyl)-1,8-naphthyridine-2-carboxamide 2,2,2-trifluoroacetate] reads 125 nM.
For the compound `O=C(N[C@@H](c1ccc(C(F)(F)F)cc1)c1ncccc1C(F)(F)F)c1cn[nH]c1` [Example 143, (S)-N-((4-(trifluoromethyl)phenyl)(3-(trifluoromethyl)pyridin-2-yl)methyl)-1H-pyrazole-4-carboxamide], the IC50 came to 87.4 nM.
The result for `CC(O)c1ccc([C@H](NC(=O)c2ccc3cccnc3c2)c2ncccc2C(F)(F)F)cc1` (stereo partly drawn) [Example 26, N-((1S)-(4-(1-hydroxyethyl)phenyl)(3-(trifluoromethyl)pyridin-2-yl)methyl)quinoline-7-carboxamide] reads 3290 nM; that for `Cn1cc(C(=O)N[C@@H](c2ccc(C(F)(F)F)cc2)c2ncccc2Cl)ccc1=O` [Example 249, (S)-N-((3-chloropyridin-2-yl)(4-(trifluoromethyl)phenyl)methyl)-1-methyl-6-oxo-1,6-dihydropyridine-3-carboxamide 2,2,2-trifluoroacetate], 13.2 nM; that for `CNS(=O)(=O)c1ccc(C(=O)N[C@@H](c2ccc(C(F)(F)F)cc2)c2ncccc2F)cc1` [Example 74, (S)-N-((3-fluoropyridin-2-yl)(4-(trifluoromethyl)phenyl)methyl)-4-(N-methylsulfamoyl)benzamide], 85.3 nM.
As for `CCNc1ccc(C(=O)N[C@@H](c2ccc(C(F)(F)F)cc2)c2ncccc2C(F)(F)F)cn1` [Example 263, (S)-6-(Ethylamino)-N-((4-(trifluoromethyl)phenyl)(3-(trifluoromethyl)pyridin-2-yl)methyl)nicotinamide], the IC50 amounted to 133 nM.
For `O=C(CCc1c[nH]cn1)N[C@@H](c1ccc(C(F)(F)F)cc1)c1ncccc1C(F)(F)F` [Example 155, (S)-3-(1H-imidazol-4-yl)-N-((4-(trifluoromethyl)phenyl)(3-(trifluoromethyl)pyridin-2-yl)methyl)propanamide 2,2,2-trifluoroacetate], the IC50 came out at 1440 nM.
On to `O=C(O)C1CCC(C(=O)N[C@@H](c2ccc(C(F)(F)F)cc2)c2ncccc2C(F)(F)F)CC1` (stereo partly drawn) [Example 244, (S)-4-(((4-(trifluoromethyl)phenyl)(3-(trifluoromethyl)pyridin-2-yl)methyl)carbamoyl)cyclohexanecarboxylic acid], for which the IC50 is 3380 nM.
Take `CCn1cc(C(=O)N[C@@H](c2ccc(Cl)c(Cl)c2)c2ncccc2F)ccc1=O` [Example 365, (S)-N-((3,4-dichlorophenyl)(3-fluoropyridin-2-yl)methyl)-1-ethyl-6-oxo-1,6-dihydropyridine-3-carboxamide]: the IC50 was 40.1 nM.
Consider `O=C(NC(c1ccc(OC(F)(F)F)c(F)c1)c1cc(F)ccc1F)c1ccc(=O)[nH]c1` (stereo not shown) [Example 414, N-((2,5-difluorophenyl)(3-fluoro-4-(trifluoromethoxy)phenyl)methyl)-6-oxo-1,6-dihydropyridine-3-carboxamide], for which the IC50 came to 150 nM.
Take `C=CCc1cccnc1[C@@H](NC(=O)[C@@H](C)c1ccccc1)c1ccc(C(F)(F)F)cc1` [Example 235, (S)-N-((S)-(3-allylpyridin-2-yl)(4-(trifluoromethyl)phenyl)methyl)-2-phenylpropanamide]: the IC50 was 226 nM.
`O=C(N[C@@H](c1ccc(C(F)(F)F)cc1)c1ncccc1F)c1ccc2ccc(=O)[nH]c2c1` [Example 125, (S)-N-((3-fluoropyridin-2-yl)(4-(trifluoromethyl)phenyl)methyl)-2-oxo-1,2-dihydroquinoline-7-carboxamide]: the IC50 was 176 nM.
Turning to `O=C(N[C@@H](c1ccc(C(F)(F)F)cc1)c1ncccc1F)c1cccnc1` [Example 203, (S)-N-((3-fluoropyridin-2-yl)(4-(trifluoromethyl)phenyl)methyl)nicotinamide], the IC50 is 135 nM.
Regarding `CN(C)c1ccc(C(=O)N[C@@H](c2ccc(C(F)(F)F)cc2)c2ncccc2C(F)(F)F)cc1` [Example 196, (S)-4-(dimethylamino)-N-((4-(trifluoromethyl)phenyl)(3-(trifluoromethyl)pyridin-2-yl)methyl)benzamide], the IC50 worked out at 67.1 nM.
As for `Cc1cccnc1[C@@H](NC(=O)c1ccc2oc(=O)[nH]c2c1)c1ccc(C(F)(F)F)cc1` [Example 84, (S)-N-((3-methylpyridin-2-methyl)phenyl)yl)(4-(trifluoromethyl)-2-oxo-2,3-dihydrobenzo[d]oxazole-5-carboxamide], the IC50 was 5.3 nM.
With `O=C(N[C@@H](c1ccc(C(F)(F)F)cc1)c1ncccc1F)c1ccc2[nH]c(=O)oc2c1` [Example 78, (S)-N-((3-fluoropyridin-2-yl)(4-(trifluoromethyl)phenyl)methyl)-2-oxo-2,3-dihydrobenzo[d]oxazole-6-carboxamide], the IC50 was 14.8 nM.
Regarding `O=C(N[C@@H](c1ccc(C(F)(F)F)cc1)c1ncccc1F)c1ccc(O)cn1` [Example 173, (S)-N-((3-fluoropyridin-2-yl)(4-(trifluoromethyl)phenyl)methyl)-5-hydroxypicolinamide], the IC50 turned out to be 15.3 nM.
Consider `O=C(N[C@@H](c1ccc(OC(F)(F)F)cc1)c1ncccc1F)c1ccc(=O)[nH]n1` [Example 350, (S)-N-((3-fluoropyridin-2-yl)(4-(trifluoromethoxy)phenyl)methyl)-6-oxo-1,6-dihydropyridazine-3-carboxamide], for which the IC50 is 22.7 nM.
The result for `O=C(N[C@@H](c1ccc(OC(F)(F)F)c(F)c1)c1ncccc1F)c1cc2n(n1)CCCO2` [Example 355, (S)-N-((3-fluoro-4-(trifluoromethoxy)phenyl)(3-fluoropyridin-2-yl)methyl)-6,7-dihydro-5H-pyrazolo[5,1-b][1,3]oxazine-2-carboxamide] reads 38.5 nM.
For the compound `CC(C)(C)c1cccnc1[C@@H](NC(=O)c1ccc2cccnc2c1)c1ccc(C(F)(F)F)cc1` [Example 286, (S)—N-((3-(tert-Butyl)pyridin-2-yl)(4-(trifluoromethyl)phenyl)-methyl)quinoline-7-carboxamide 2,2,2-trifluoroacetate], the IC50 came out at 1110 nM.
In the case of `COCCC(=O)N[C@@H](c1ccc(C(F)(F)F)cc1)c1ncccc1C(F)(F)F` [Example 224, (S)-3-methoxy-N-((4-(trifluoromethyl)phenyl)(3-(trifluoromethyl)pyridin-2-yl)methyl)propanamide], the IC50 came to 1400 nM.
Turning to `O=C(N[C@@H](c1ccc(C(F)(F)F)cc1)c1ncccc1C(F)(F)F)c1ccc2c(Cl)ccnc2c1` [Example 110, (S)-4-chloro-N-((4-(trifluoromethyl)phenyl)(3-(trifluoromethyl)pyridin-2-yl)methyl)quinoline-7-carboxamide 2,2,2-trifluoroacetate], the IC50 is 64.4 nM.
Take `O=C(N[C@@H](c1ccc(OC(F)(F)F)c(F)c1)c1ncccc1F)c1ccc(=O)n(C[C@H](O)C(F)(F)F)c1` [Example 408, N-((S)-(3-fluoro-4-(trifluoromethoxy)phenyl)(3-fluoropyridin-2-yl)methyl)-6-oxo-1-((S)-3,3,3-trifluoro-2-hydroxypropyl)-1,6-dihydropyridine-3-carboxamide]: the IC50 was 78.1 nM.

The values above are taken from patent US8710043B2, “TRPM8 antagonists and their use in treatments” (Amgen Inc., priority 2011, dated 2014).
